Here are results for 62 molecules from ChEMBL document CHEMBL5724803, “Viability screening in matched tumor and normal assay results for EUbOPEN Chemogenomics Library” (2024).

Square brackets hold non-standard residues; d marks the D form. Peptide text beside a SMILES is read from it. Arg(Me) = CNC(=N)NCCC[C@H](N)C(=O)O; d3Pal = N[C@H](Cc1cccnc1)C(=O)O; d4Pal = N[C@H](Cc1ccncc1)C(=O)O; azaGly = NNC(=O)O

For this assay, the system named is Colon organoid. In kind it is functional, Homo sapiens.

On to `O=C(Nc1cnc(Oc2ccc(F)cc2)nc1)N1CCc2ncccc2[C@@H]1c1ccc(F)cc1` [BAY-899], for which the “Cell Viability Ratio” value is on record as 1.086. With `CC1=C(C#N)C(c2ccc3c(c2)c(NC(=O)c2ccccc2C)nn3C)C(C#N)=C(C)N1` [BAY-974] the figure was 1.012; with `C[C@H](c1ccnc(Nc2nc3ccc(-c4cc(N(C)C)ncn4)cc3[nH]2)c1)N1CCN(C(=O)CC(F)(F)F)CC1` [BAY-985], 0.822; with `Cn1cc(Cl)c2c(Oc3c(F)cc(Nc4cc(Cl)nc(N)n4)cc3F)ccnc21` [BAY-4900], 1.21. The result for `Cc1c(N2CCCC2)nc2ccc(Br)cc2c1C(=O)NC[C@H](CCC(=O)O)c1ccccc1Cl` [BAY-6672] reads 0.9418; that for `O=C(O)[C@H]1[C@H](Cn2nnc3ccccc3c2=O)CC[C@@H]1C(=O)c1ccc(OCCC2CCOCC2)cc1` [BAY-7598], 1.026; that for `COc1cc(N[C@@H]2CCCC[C@]2(O)C(F)(F)F)ccc1F` [BAY-9897], 0.9982. For the molecule `CC(=O)N1CCC(c2ccc(C(=O)NC3=NCCN3)cc2C(F)(F)F)CC1` [BI 0054], the “Cell Viability Ratio” value worked out at 1.041. For the molecule `CN(C)C(=O)Cn1cc(-c2nc(C3(c4ccc(-c5cnc(N)nc5)cc4)CC3)no2)cn1` [BI 0153], the “Cell Viability Ratio” value was 0.9292. The result for `COc1ccc2c(O[C@@H]3C[C@H]4C(=O)N[C@]5(C(=O)O)CC5/C=C\CCCCC[C@H](NC(=O)OC5CCCC5)C(=O)N4C3)cc(-c3csc(NC(=O)C(C)C)n3)nc2c1C` (some centres not stated) [BI 1230] reads 0.9938; that for `O=C(N[C@H]1CCCCC/C=C\C2C[C@@]2(C(=O)O)NC(=O)[C@@H]2C[C@@H](Oc3ccncc3)CN2C1=O)OC1CCCC1` (some centres not stated) [BI 1675], 1.111. With `CCOCCn1cc(C(=O)Nc2ccc(-n3nc(-c4cccnc4)cc3C(F)(F)F)cn2)ccc1=O` [BI 1935] the figure was 0.9955; with `C[C@H](NC(=O)c1cnc2n1[C@](C)(Cc1ccc(C#N)cc1)C(=O)N2c1cc(Cl)c(F)c(Cl)c1)C(=O)NC1(c2ccccn2)CC1` [BI 1950], 0.9219; with `O=C(Nc1ccc(-n2nc(-c3cccnc3)cc2C(F)(F)F)cn1)c1ccc(-c2ccccc2)c(F)c1` [BI 2049], 1.116. With `CCS(=O)(=O)c1cc2cc(C[C@@](O)(CC(C)(C)c3ccc(F)cc3C(N)=O)C(F)(F)F)[nH]c2cn1` [BI 3047] the figure was 1.1136.

As for `CCOC(=O)c1cc2cc(-c3cc(C(=O)NCc4ccc(C(=O)O)cc4)nn3C)ccc2[nH]1` [BI 4394], the “Cell Viability Ratio” value turned out to be 0.9253. With `Cn1nc(C(=O)NCc2ccc(C(=O)O)cc2)cc1-c1ccc2[nH]ccc2c1` [BI 4395] the figure was 1.056. The result for `CS(=O)(=O)NCC[C@H](NC(=O)c1cncc2c1cnn2-c1ccc(F)cc1)c1ccnc(S(C)(=O)=O)c1` [BI 9307] reads 1.198. For the molecule `C[C@@]1(Cc2ccc(C#N)cc2)C(=O)N(c2cc(Cl)cc(Cl)c2)c2ncc(C(=O)NC3(c4nc(C5CCC5)no4)CC3)n21` [BI 9446], the “Cell Viability Ratio” value came out at 1.099. The result for `CC(=O)N1CCC(c2ccc(C(=O)NC(=N)N)cc2C(F)(F)F)CC1` [BI 9627] reads 0.903; that for `CCC(=O)N[C@H]1CC[C@@H](C(=O)N(C)c2ccc(-c3nc4ccccc4o3)cc2)C1` [BI 99179], 0.6872; that for `CCC(=O)N[C@@H]1CC[C@H](C(=O)N(C)c2ccc(-c3nc4ccccc4o3)cc2)C1` [BI 99990], 1.309. As for `CS(=O)(=O)c1cc(C2(NC(=O)c3cncc4c3cnn4-c3ccc(F)cc3)CC2)ccn1` [BI 639667], the “Cell Viability Ratio” value amounted to 0.9024.

On to `CCS(=O)(=O)c1cc2cc(C[C@](O)(CC(C)(C)c3ccc(F)cc3C(N)=O)C(F)(F)F)[nH]c2cn1` [BI 653048], for which the “Cell Viability Ratio” value came to 0.9178. With `O=c1nc(-c2ccccn2)sc2ccccc12` [BTZO-1] the figure was 0.8779; with `O=C1NC(c2ccccn2)Sc2ccccc21` (configuration not stated) [BTZO-4], 1.041; with `CN1CCN(Cc2ccc(Nc3ncc(Cl)c(Nc4ccccc4S(=O)(=O)N(C)C)n3)cc2)CC1` [DUBERMATINIB], 0.1542.

In the case of `C[C@H](NC(=O)Nc1cc2[nH]ncc2c(CO)n1)c1ccccn1` [ERKi-NC], the “Cell Viability Ratio” value was determined as 1.034. With `CN(C(=O)c1ccccc1)c1cc(N(C)c2ccc3c(c2)CCc2ccc(C(=O)NCCN4CCOCC4)cc2C3=O)ccc1F` [FM-743] the figure was 0.9975. With `O=C(NCCN1CCOCC1)c1ccc2c(c1)C(=O)c1ccc(Nc3ccc(F)c(NC(=O)c4ccccc4)c3)cc1CC2` [FS-694], the “Cell Viability Ratio” value turned out to be 0.8259. Consider `CC(C)(C)OC(=O)N1CCCC1CNC1CCC(c2cc(F)ccc2F)(S(=O)(=O)c2ccc(Cl)cc2)CC1` (configuration not stated) [GSI-NC], for which the “Cell Viability Ratio” value is 0.9423. The result for `CC(=O)Nc1c(F)cc(C(=O)N[C@H]2CC[C@H](O)CC2)cc1O[C@@H](C)c1ccccc1` [GSK046] reads 0.8182; that for `CNC(=O)c1cc(C(=O)NC2CC2)cn(Cc2ccccc2)c1=O` [GSK620], 0.8825.

`O=C(O)c1ccc(-c2c[nH]c3ncc(-c4ccccc4)cc23)cc1C1CCCC1` [GSK-650394]: the “Cell Viability Ratio” value amounted to 1.062.

As to `Cc1c(Oc2ccc(F)cc2)c(OC(C)C)nn1-c1ccc(C2CC2)cn1` [IPP/CNRS-A019], the “Cell Viability Ratio” value was 1.225. With `CNC(=N)NCCC[C@H](NC(=O)[C@H](CC(C)C)NC(=O)NNC(=O)[C@H](Cc1ccccc1)NC(=O)[C@H](CO)NC(=O)[C@H](CC(N)=O)NC(=O)[C@@H](Cc1ccncc1)NC(=O)[C@H](N)Cc1ccc(O)cc1)C(=O)N[C@@H](Cc1ccccc1)C(N)=O` [KISS1-305] (H-[dY][d4Pal]NSF[azaGly]L[Arg(Me)]F-NH2), the “Cell Viability Ratio” value stood at 1.123. With `CNC(=N)NCCC[C@H](NC(=O)[C@H](CC(C)C)NC(=O)NNC(=O)[C@H](Cc1ccccc1)NC(=O)[C@H](CO)NC(=O)[C@H](CC(N)=O)NC(=O)[C@@H](Cc1cccnc1)NC(=O)[C@H](N)Cc1ccc(O)cc1)C(=O)NCC(N)=O` [KISS1-543] (H-[dY][d3Pal]NSF[azaGly]L[Arg(Me)]G-NH2) the figure was 1.03; with `C[C@@H]1CN(c2cc(-c3nn(C)c4ccc(OC5(C)CC5)cc34)ncn2)C[C@H](C)O1` [MLi-2-NC], 1.036. In the case of `CC(=O)c1c(NS(C)(=O)=O)c2cc(-c3ccc(Cl)cc3)c(-c3ccc(Cl)cc3Cl)nc2n(C)c1=O` [MRL-CB1-NC], the “Cell Viability Ratio” value is reported as 1.02.

On to `Cc1ccc(-c2cnc([C@@]3(O)CC[C@H](C(=O)O)C(C)(C)C3)s2)cc1Nc1cccc(C(F)(F)F)n1` [MRL-SYKi-NC], for which the “Cell Viability Ratio” value is recorded as 1.002.

In the case of `Cc1cc(Nc2nccc(C)n2)cc(-c2cnc([C@@]3(O)CC[C@H](C(=O)O)C(C)(C)C3)s2)c1` [MRL-SYKi], the “Cell Viability Ratio” value is 0.8949. The result for `FC(F)(F)c1ccc2c(c1)nc(-c1cccnc1)n2C1CC1` [MSD-CYP11B2-Negative-control] reads 1.22; that for `CC(C)(O)c1cncc(-c2nc3ccc(F)cc3n2C2CC2)c1` [MSD-CYP11B2], 0.9895; that for `N#CC1(c2ccccn2)CCN(Cc2cc(C(=O)N3CCCC3)c(=O)n3ccccc23)CC1` [MSD-M1PAM-NC], 1.068. The result for `CO[C@@H](C)c1c(Nc2ccc([C@@H](N(C)C(=O)C3CCS(=O)(=O)CC3)C(F)(F)F)cc2)cnc2cc(Cl)nn12` [NVS-MALT1-C] reads 1.209. With `CO[C@@H](C)c1c(Nc2ccc([C@H](N(C)C(=O)C3CCS(=O)(=O)CC3)C(F)(F)F)cc2)cnc2cc(Cl)nn12` [NVS-MALT1] the figure was 0.853; with `Nc1nc(NCc2ccccc2)nc(-c2ccccc2CO)n1` [Ogerin], 1.099; with `CN(c1ccnc(CNc2nc(Nc3ccc4c(c3)CC(=O)N4)ncc2C(F)(F)F)n1)S(C)(=O)=O` [PF-00911705], 1.1264. For `CC(=O)NCC(=O)N1[C@@H]2CC[C@H]1c1ccc(Nc3ncc(C(F)(F)F)c(NC4CCC4)n3)cc12` [PF-03814735], the “Cell Viability Ratio” value stood at 0.4683. The result for `COc1ccc2cc(OCC3(C(=O)O)CN(C(=O)c4ccc(F)cc4)C3)ccc2c1` [PF-04418948] reads 1.076; that for `O=C(c1ccc(F)cc1)N1CC(COc2ccc(Br)cc2)(C(=O)O)C1` [PF-04475866], 0.9754. On to `C[C@H](c1ccc(F)cc1)N(Cc1ccc(Cl)c(C(=O)O)c1)C(=O)c1cnc2ccccc2c1` [PF-05257137], for which the “Cell Viability Ratio” value was 1.055.

On to `Cn1cnc2c(F)c(Nc3ccc(Br)cc3Cl)c(C(=O)NOCCO)cc21` [SELUMETINIB], for which the “Cell Viability Ratio” value is listed as 1.4315.

As for `O=C1c2ccc(Nc3ccc(F)cc3F)cc2CCc2ccc(OC[C@H](O)CO)cc21` [Skepinone-L], the “Cell Viability Ratio” value is on record as 1.035. Regarding `CN1CCN(C(=O)C(C)(C)c2ccc(C(=O)Nc3cn4cc(-c5cc(C(C)(C)C)cc(C(C)(C)C)c5)ccc4n3)cc2)CC1` [T3-CLK-N], the “Cell Viability Ratio” value is 0.9471.

With `COc1cccc(CNC(=O)c2nc3scc(CN(C)Cc4ccccc4)c3c(=O)[nH]2)c1` [T-26f], the “Cell Viability Ratio” value stood at 1.048. On to `CC(C)CC(=O)N1CCc2nc(-c3ccc(Br)cc3)nc(N(C)Cc3ccccc3)c2C1` [THPP-1-NC], for which the “Cell Viability Ratio” value came to 1.2658. As to `COCCOc1nc(-c2ccc(Cl)nc2)nc2c1CN(C(=O)c1ncn3ccccc13)CC2` [THPP-1], the “Cell Viability Ratio” value came out at 1.038. As to `Cc1cnc(-c2cc(Cl)ccc2F)cc1-n1c(=O)n(CC(N)=O)c2cnccc21` [TP-008], the “Cell Viability Ratio” value is recorded as 1.1125. The result for `Cn1nc(C(F)(F)F)cc1-c1cnc(N2CCc3cc(S(=O)(=O)Nc4c(F)cc(Cl)cc4F)cc(N4CCCC4=O)c32)nc1` [TP-020] reads 0.9629; that for `Nc1cnc(N2CCc3cc(S(=O)(=O)Nc4c(F)cc(Cl)cc4F)cc(N4CCCC4=O)c32)nc1` [TP-020n], 1.046. The result for `Cc1cc(-n2nc(Cc3cc(F)cc(C(F)(F)F)c3)nc2C)ccc1C(N)=O` [TP-024] reads 0.8967.
